Test results: EP3530280B1, “VETERINARY COMPOSITION FOR MANUFACTURING A SEMINAL ADDITIVE USEFUL FOR ARTIFICIAL INSEMINATION IN ANIMALS” (Universidad De León, priority 2016, dated 2020)

System: swine
Test: Field studies of semen additive in swine artificial insemination (fecundity, birth fertility, prolificacy)
Type: in vivo
Settings: Experimental Groups, amount per dose as given in the Composition column
Experimental: In order to examine the effect of the prepared pharmaceutical composition in Example 1 above, for use thereof in swine artificial insemination, field studies were carried out about the effects on fecundity, birth fertility and prolificacy (mean of the total piglets being born (either dead or alive) per delivery). Tables 1 and 2 show the results of the studies being carried out, observing how there are differences being statistically significant in all the experimental groups with respect to control groups.
The statistical characters of fecundity (%fecundity), prolificacy (N.T.), number of alive births (N.V.) and mortality (% of N.M. against N.T.), were tested on factorial ANOVA, LSD Fisher and SAS package (Statistical Analysis System). Table 1. Effects on fecundity and birth fertility

[1] = additive applied to seminal doses for swine artificial insemination

With Oxytocin the “prolificacy (mean of the total piglets being born (either dead or alive) per delivery)” value (Mean ± e.s. (n)) was 14.30 ± 0.29 (154), the “Birth Fertility (%)” value [1] was 88.89% and the “Fecundity (%)” value [1] was 90.26%.
